Key:
[1] = tested on: βcat(ex3)osb mice; assay: Six-week treatment of βcat(ex3)osb mice with anti-Jagged1 antibody or DBZ (Example 17); format: in vivo
Protocol: The following endpoints are analyzed: survival, complete hematopoietic profile in the marrow, leukemia presence in peripheral blood, bone marrow, spleen and liver, potential end organ toxicity, and gene expression profiling of Notch targets Hes1, Hes5, Hey1, and Hey2, and the Hes1 targets, Cebpα and Pu.1.

[2] = tested on: wild type mice; assay: DBZ treatment of wild type mice: peripheral blood counts and bone marrow cellularity; format: in vivo, mouse; conditions: DBZ 2 μmol/kg body weight daily for 10 days
Protocol: (§1) […] DBZ is cell-permeable, selective, nontransition sate and noncompetitive inhibitor of the γ-secretase complex. DBZ was synthesized to greater than 99.9% purity as assessed by LC/MS (Syncom) and suspended in a 0.5% Methocel E4M (wt/vol, Colorcon) and 0.1% (vol/vol) Tween-80 (Sigma) solution (van Es et al., 2005). Immediately before intraperitoneal injection, DBZ was sonicated for 2 minutes to achieve a homogenous suspension.
For hematological measurements, blood was collected by cardiac puncture. Peripheral blood cell counts were performed on a FORCYTE Hematology Analyzer (Oxford Science Inc.). For morphological assessment, peripheral blood smears were stained with Wright-Giemsa stain (Sigma-Aldrich) for 10 minutes followed by rinsing in dH2O for 3 minutes. Images were taken using a 60× objective on a Leica microscope outfitted with camera. […]
Hematological measurements, peripheral blood morphology, flow cytometry, PCR, and histological analysis were performed as described in Example 1.

[3] = tested on: βcat(ex3)osb mice; assay: DBZ (γ-secretase inhibitor) treatment of βcat(ex3)osb mice: blood counts, flow cytometry, histology, survival; format: in vivo
Protocol: as §1
For hematological measurements, blood was collected by cardiac puncture. Peripheral blood cell counts were performed on a FORCYTE Hematology Analyzer (Oxford Science Inc.). For morphological assessment, peripheral blood smears were stained with Wright-Giemsa stain (Sigma-Aldrich) for 10 minutes followed by rinsing in dH2O for 3 minutes. Images were taken using a 60× objective on a Leica microscope outfitted with camera.
Freshly isolated bone marrow cells and spleen cells were resuspended in flow-staining buffer (PBS plus 2% FBS) and the primary conjugated antibodies were added. After 30 minutes incubation at 4° C., the cells were then washed twice before flow cytometry analysis. The following monoclonal antibodies conjugated with fluorescein isothiocyanate (FITC), Allophycocyanin (APC) phycoerythrin (PE), PE-Cy7, APC-CY7, Pacific Blue, and Alexa 700 were used: CD117 (c-kit; 2B8), Sca-1 (D7), Mac-1α (M1/70), Gr-1(RB6-8C5), TER-119, (Ly-76) B220 (CD45R), CD19 (ID3), IgM (R6-60.2), CD3 (17A2), CD4 (RM4-5), CD8a (53-6.7), CD34 (RAM34), CD45 (30-F11), CD31 (MEC 13.3), CD16/CD32 (FcγRII/III; 2.4G2), CD135 (A2F10.1), CD150 (9D1), CD71 (C2), CD45.2 (104), CD45.1 (A20), F4/80, non-phospho (Active) β-Catenin (S33/S37/T41) antibody, IL-7Rα (SB199), Jagged-1 (C-20) and (Cell Signaling; D13A1). Seven-color flow cytometry acquisition was performed using a LSR II flow cytometer (Becton Dickinson) and analysis using FLO-JO software (Treestar, Inc). Cells were gated for size, shape and granularity using forward and side scatter parameters. The positive populations were identified as cells that expressed specific levels of fluorescence activity above the nonspecific auto fluorescence of the isotype control. Nonspecific binding was reduced by preincubation with unconjugated (2.4G2). Osteoblasts from MDS/AML patients or healthy subjects were identified as CD34−/Lin−OCN+ cells, (OCN: osteocalcin an osteoblast-specific protein used for isolation of live osteoblastic cells). For Flow sorting bone marrow, spleen and thymus cells were resuspended in flow staining buffer at 1×10^6/ml and labeled with the appropriate conjugated antibodies. After 30 minutes incubation, cells were washed twice using flow buffer. Flow sorting was performed using FACSAria (Becton Dickinson). Sorted populations were subsequently cultured or stored in RLT buffer at −80° C. for later extraction of RNA. Fluorescence intensity plots were presented in log scale. All flow cytometry data were representative of five independent experiments.
Bone marrow biopsies were fixed overnight in 10% neutral formalin solution, decalcified embedded in paraffin and sectioned at 5 μm per standard laboratory protocol. Sections were stained for β-catenin using a monoclonal antibody (1:1000, BD Transduction Lab) or for Runx2 using a polyclonal antibody (1:100 dilution, Santa Cruz) on an automated Ventana Discovery XT (Tuscon, Ariz.) platform according to manufacturer's instructions. Immune complexes formed were developed using a DAB Map Kit (Ventana, Tuscon, Ariz.). Murine long bones, spleen and liver were collected from one month old mice, fixed overnight in 10% neutral formalin solution, embedded in paraffin, sectioned at 5 μm, and stained with haematoxylin and eosin (H&E). For immunohistochemistry, specimens were incubated with CD-117 (C-kit; Abeam), CD13 (Santa Cruz) or Myeloperoxidase (MPO) antibodies after an antigen retrieval step and blocking of endogenous peroxidase with 3% H2O2. […]

[4] = tested on: primary, calvaria-derived osteoblasts; assay: Real-time PCR of Jagged-1 and Magp-2 in primary osteoblasts treated with Wnt3a; format: cell-based, mouse; conditions: Wnt3a 50 ng/ml for 24 hours, versus vehicle
Protocol: (§2) In FIGS. 57B and C, the vehicle treated is represented by the left hand bar and the Wnt3a treated is represented by the right hand bar. n=4 replicates, *p<0.05 versus vehicle. Results are mean±SD.
(§3) Total RNA was isolated from LSK or hematopoietic cells using RNAeasy micro Plus kit (Quiagen). Total RNA from long bones was isolated using TRIzol reagent. Quantitative real-time PCR was performed using the SYBR Green Master Mix (Bio-Rad) as previously described (Rached et al., 2010a). β-Actin was used as endogenous control. Gene expression in LT-HSCs, ST-HSCs and MPPs was performed using the Power Syber Green Cells-to-CT kit (Ambion Life Technologies)
For flow cytometry analysis, osteoblasts were identified from the digested bone samples as a population of CD34^−Lin^−Ocn^+ cells, where OCN (osteocalcin) is an osteoblast-specific, non-nuclear protein commonly used for isolation of live osteoblastic cells (Eghbali-Fatourechi et al., 2005; Rubin et al., 2011; Manavalan et al., 2012). For experiments in mice, all gene expression studies were repeated using calvaria-derived cells a population rich in committed osteoblast progenitors and routinely used as osteoblast-representative. Primary murine osteoblasts were prepared from calvaria of 2 day-old pups as previously described (Ghosh-Choudhury et al., 1994; Rached et al., 2010b). […]

[5] = tested on: LSK cells cultured in the presence of primary osteoblasts; assay: Real-time PCR of Hes1, Pu.1 and CEBPα in LSK+ population co-cultured with primary osteoblasts and treated with Wnt3a; format: cell-based, mouse; conditions: Wnt3a 50 ng/ml for 24 hours, co-culture with primary osteoblasts
Protocol: as §2, §3

[6] = βcat(ex3)osb mice, six weeks treatment
[7] = βcat(ex3)osb mice, 10 days DBZ, bone marrow and spleen
[8] = βcat(ex3)osb mice, DBZ 2 μmol/kg body weight daily for 10 days

C[C@H](NC(=O)Cc1cc(F)cc(F)c1)C(=O)NC1C(=O)N(C)c2ccccc2-c2ccccc21 (stereo partly drawn) [DBZ, (2S)-2-[2-(3,5-difluorophenyl)-acetylamino]-N-(5-methyl-6-oxo-6,7-dihydro-5H-dibenzo[b,-d]azepin-7-yl)-propionamide]
Toxic effect on the intestines ([1]; mouse, in vivo): no toxic effect | Anemia, peripheral monocytosis, neutrophilia and lymphocytopenia and defects in the myeloid lineage, erythroid cells, LSK and LT-HSCs populations in the bone marrow [1, 6]: reversal | Expression of Notch targets Hes1, Hes5, Hey1, and Hey2, and the Hes1 targets, Cebpα and Pu.1 [1, 6]: decrease | Invasion of myeloid cells [1, 6]: no invasion | LSK and lymphoid-biased progenitors in the bone marrow and LSK/FcgRII/III subset of myeloid progenitors in spleen and bone marrow [1, 6]: return to normal levels | Myeloperoxidase staining in bone marrow, spleen and liver [1, 6]: identical to that of control animals | Survival [1, 6]: increased survival | BA (basophils) [2]: 0.5 ± 0.2% | BM cell per femur [2]: 71.5 ± 4.3 10^5 | EO (eosinophils) [2]: 1.55 ± 0.2% | HB [2]: 12.8 ± 0 g/dL | HCT [2]: 45.90 ± 2.5% | LY (lymphocytes) [2]: 78.54 ± 3.2% | MO (monocytes) [2]: 5.01 ± 0.6% | NE [2]: 14.41 ± 3.2% | Platelet [2]: 1119.5 ± 68.5 10^3/μl | WBC [2]: 3.54 ± 0.5 ×10^3/μl | Toxic effects (intestinal architecture, goblet cell metaplasia, PAS staining) ([3]; mice treated 10 days with DBZ, intestine): without any toxic effects | Survival (Kaplan-Meier) ([3]; βcat(ex3)osb mice treated with DBZ versus vehicle): increased survival | Blasts and hypersegmented neutrophils in the blood; infiltration with immature and atypical myeloid cells and atypical micro-megakaryocytes in bone marrow and spleen ([3]; βcat(ex3)osb mice, 10 days DBZ): not observed | Bone marrow cellularity ([3]; βcat(ex3)osb mice, 10 days DBZ): not affected | LSK and lymphoid-biased progenitors in the bone marrow and LSK/FcgRII/III subset of myeloid progenitors in spleen and bone marrow ([3]; βcat(ex3)osb mice, 10 days DBZ): returned to normal levels | Liver histology ([3]; βcat(ex3)osb mice, 10 days DBZ): appeared normal | Myeloperoxidase staining in bone marrow, spleen and liver ([3]; βcat(ex3)osb mice, 10 days DBZ): identical to that of wild type animals | Compromised B-lymphopoiesis [3, 7]: partially rescued | Defects in the myeloid lineage, erythroid cells, LSK and LT-HSCs populations [3, 7]: reversed | Osteopetrotic phenotype ([3]; βcat(ex3)osb mice, 10 days DBZ, long bone sections): not affected | Anemia, peripheral monocytosis, neutrophilia and lymphocytopenia ([3]; βcat(ex3)osb mice, 10 days DBZ, peripheral blood): reversed | BA (basophils) [3, 8]: 0.67 ± 0.7% | BM cell per femur [3, 8]: 18.6 ± 3.5 10^5 | EO (eosinophils) [3, 8]: 1.87 ± 1.6% | HB [3, 8]: 11.2 ± 0.9 g/dL | HCT [3, 8]: 36.75 ± 3.2% | LY (lymphocytes) [3, 8]: 49.76 ± 4.3% | MO (monocytes) [3, 8]: 7.46 ± 1.2% | NE [3, 8]: 42.21 ± 4.8% | Platelet [3, 8]: 650 ± 113.1 10^3/μl | RBC [3, 8]: 8.06 ± 0.5 ×10^6/μl | WBC [3, 8]: 3.1 ± 0.5 ×10^3/μl

Wnt3a
Expression of Jagged-1 and Magp-2 [4]: upregulated | Notch signaling in LSK cells (Hes1, Pu.1 and CEBPα expression) [5]: stimulated

Source: patent US10350216B2, “Methods of treating, preventing and diagnosing leukemia and other blood diseases and disorders” (The Trustees of Columbia University in the City of New York, priority 2013, dated 2019)
